According to the supplement of paper PMC9663587:

Legend:
Assay in all cases: GRmax, 72 h; higher = less effect;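 also: breast cell lines in 384-well plates, nine doses across a 10^4 range, Dye Drop imaging of viable cells vs DMSO and time-zero plates, GR 0 means no net growth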
184A1 = system: 184A1
BT20 = system: BT20
HCC1569 = system: HCC1569
HCC202 = system: HCC202
MCF7 = system: MCF7
MDAMB175VII = system: MDAMB175VII
MDAMB361 = system: MDAMB361
PDX1328 = system: PDX1328
SUM149 = system: SUM149
SUM185PE = system: SUM185PE
SUM190PT = system: SUM190PT
SUM229PE = system: SUM229PE
SUM44PE = system: SUM44PE
UACC893 = system: UACC893
ZR751 = system: ZR751

Structure (SMILES) | GRmax, 72 h (184A1) | GRmax, 72 h (BT20) | GRmax, 72 h (HCC1569) | GRmax, 72 h (HCC202) | GRmax, 72 h (MCF7) | GRmax, 72 h (MDAMB175VII) | GRmax, 72 h (MDAMB361) | GRmax, 72 h (PDX1328) | GRmax, 72 h (SUM149) | GRmax, 72 h (SUM185PE) | GRmax, 72 h (SUM190PT) | GRmax, 72 h (SUM229PE) | GRmax, 72 h (SUM44PE) | GRmax, 72 h (UACC893) | GRmax, 72 h (ZR751) | GRmax, 72 h (BT20; main component drawn) | GRmax, 72 h (MCF7; main component drawn) | GRmax, 72 h (MDAMB361; main component drawn) | GRmax, 72 h (PDX1328; main component drawn) | GRmax, 72 h (SUM149; main component drawn)
CS(=O)(=O)N1CCN(Cc2cc3nc(-c4cccc5[nH]ncc45)nc(N4CCOCC4)c3s2)CC1 [Pictilisib/GDC0941] (max 10 µM) | 0.0537 GR | -0.165 GR | -0.054 GR | -0.0303 GR | -0.159 GR | -0.903 GR | -0.938 GR | -0.167 GR | 0.341 GR | 0.0142 GR | 0.0145 GR | 0.0426 GR | -0.205 GR | -0.878 GR | -0.0806 GR |  |  |  |  | 
O=C1NC(=O)[C@@H](c2cn3c4c(cccc24)CCC3)[C@@H]1c1c[nH]c2ccccc12 [Tivantinib/ARQ197] (max 10 µM) | -0.121 GR | -0.488 GR | -0.11 GR | 0.114 GR | -0.0512 GR | -0.296 GR | -0.606 GR | -0.479 GR | -0.224 GR | 0.169 GR | -0.138 GR | -0.423 GR | -0.338 GR | -0.248 GR | -0.0475 GR |  |  |  |  | 
Cc1c(N)nc([C@H](CC(N)=O)NC[C@H](N)C(N)=O)nc1C(=O)N[C@H](C(=O)N[C@H](C)[C@@H](O)[C@H](C)C(=O)N[C@H](C(=O)NCCc1nc(-c2nc(C(=O)NCCC[S+](C)C)cs2)cs1)[C@@H](C)O)[C@@H](OC1OC(CO)C(O)C(O)C1OC1OC(CO)C(O)C(OC(N)=O)C1O)c1cnc[nH]1 (stereo not given in full) [Bleomycin] (max 10 µM) |  |  |  |  |  |  |  |  |  |  |  |  |  |  |  | -0.129 GR | -0.0459 GR | -0.266 GR | 0.306 GR | -0.315 GR
CO[C@H]1C[C@@H]2CC[C@@H](C)[C@@](O)(O2)C(=O)C(=O)N2CCCC[C@H]2C(=O)O[C@H]([C@H](C)C[C@@H]2CC[C@@H](OCCO)[C@H](OC)C2)CC(=O)[C@H](C)/C=C(\C)[C@@H](O)[C@@H](OC)C(=O)[C@H](C)C[C@H](C)/C=C/C=C/C=C/1C [Everolimus] (max 10 µM) | 0.501 GR | 0.39 GR | 0.555 GR | 0.474 GR | 0.387 GR | -0.189 GR | 0.0574 GR | 0.371 GR | 0.737 GR | 0.78 GR | 0.354 GR | 0.686 GR | 0.19 GR | 0.159 GR | 0.305 GR |  |  |  |  | 
CN1CC[C@H](c2c(O)cc(O)c3c(=O)cc(-c4ccccc4Cl)oc23)[C@H](O)C1 [Flavopiridol] (max 1 µM) | -0.329 GR | -0.639 GR | -0.177 GR | 0.027 GR | -0.291 GR | -0.309 GR | -0.389 GR | -0.0976 GR | -0.605 GR | 0.155 GR | -0.324 GR | -0.181 GR | -0.573 GR | -0.464 GR | -0.353 GR |  |  |  |  | 
CNCc1ccc(-c2[nH]c3cc(F)cc4c3c2CCNC4=O)cc1 [Rucaparib] (max 10 µM) | 0.748 GR | 0.875 GR | 0.75 GR | 0.523 GR | 0.635 GR | 0.56 GR | 0.11 GR | 0.634 GR | 0.559 GR | 0.772 GR | 0.771 GR | 0.888 GR | 0.867 GR | 0.502 GR | 0.835 GR |  |  |  |  | 
CC[C@@H]1C(=O)N(C)c2cnc(Nc3ccc(C(=O)N[C@H]4CC[C@H](N5CCN(CC6CC6)CC5)CC4)cc3OC)nc2N1C(C)C [Volasertib/BI6727] (max 1 µM) | -0.13 GR | -0.534 GR | 0.0147 GR | 0.224 GR | -0.0338 GR | -0.115 GR | -0.497 GR | -0.529 GR | -0.297 GR | 0.28 GR | -0.309 GR | -0.356 GR | -0.288 GR | -0.424 GR | -0.17 GR |  |  |  |  | 
CC1(N)CCN(c2cnc(-c3cccc(Cl)c3Cl)c(N)n2)CC1 [SHP099] (max 10 µM) | 0.279 GR | 0.914 GR | 0.92 GR | 0.733 GR | 0.847 GR | -0.0734 GR | 0.626 GR | 0.58 GR | 0.866 GR | 0.457 GR | 0.749 GR | 0.936 GR | 0.807 GR | 0.703 GR | 0.829 GR |  |  |  |  | 
CNc1nc(-c2ccc3c(N)n[nH]c3c2)cc(N2C[C@@H](C(=O)NC3CCCCC3)CC[C@H]2C)n1 (max 10 µM) | 0.572 GR | 0.68 GR | 0.673 GR | 0.155 GR | 0.295 GR | -0.459 GR | -0.417 GR | 0.545 GR | 0.698 GR | 0.54 GR | 0.236 GR | 0.696 GR | 0.166 GR | 0.144 GR | 0.425 GR |  |  |  |  | 
CCc1cncnc1N1CCN(Cc2nc3ccc(C(F)(F)F)cc3[nH]2)CC1 (max 10 µM) | 1.02 GR | 0.66 GR | 0.7 GR | 0.673 GR | 0.558 GR | -0.426 GR | 0.192 GR | 0.619 GR | 0.746 GR | 0.182 GR | 0.461 GR | 0.743 GR | 0.292 GR | 0.351 GR | 0.867 GR |  |  |  |  | 
N.N.[Cl][Pt][Cl] [Cisplatin] (max 10 µM) |  | -0.337 GR |  |  | 0.475 GR |  | -0.35 GR | -0.422 GR | -0.229 GR |  |  |  |  |  |  |  |  |  |  | 
CC[C@@]1(O)C(=O)OCc2c1cc1n(c2=O)Cc2cc3c(CN(C)C)c(O)ccc3nc2-1 [Topotecan] (max 10 µM) |  | -0.641 GR |  |  | -0.271 GR |  | -0.762 GR | -0.913 GR | -0.46 GR |  |  |  |  |  |  |  |  |  |  | 
